Reference: PubChem BioAssay (NCI)
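1) Cells in 96-well plates. 2) Compound, 48 h, 5 concentrations. 3) Linear interpolation between surrounding doses. 4) Unreached endpoint = highest concentration. GI50 marks 50% less growth. TGI denotes the concentration required for complete inhibition of growth.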

Legend:
Test in all cases: NCI-60 cell line screen, 48 h
SF-268 CNS = test system: SF-268 CNS
SK-OV-3 ovarian = test system: SK-OV-3 ovarian
SF-539 CNS = test system: SF-539 CNS
DU-145 prostate = test system: DU-145 prostate
UACC-257 melanoma = test system: UACC-257 melanoma
SK-MEL-2 melanoma = test system: SK-MEL-2 melanoma
IGROV1 ovarian = test system: IGROV1 ovarian
SNB-75 CNS = test system: SNB-75 CNS
K-562 leukemia = test system: K-562 leukemia
SR leukemia = test system: SR leukemia
SF-295 CNS = test system: SF-295 CNS
OVCAR-5 ovarian = test system: OVCAR-5 ovarian
NCI-H522 lung = test system: NCI-H522 lung
NCI-H23 lung = test system: NCI-H23 lung
HL-60(TB) leukemia = test system: HL-60(TB) leukemia
UACC-62 melanoma = test system: UACC-62 melanoma
PC-3 prostate = test system: PC-3 prostate
SK-MEL-5 melanoma = test system: SK-MEL-5 melanoma
TK-10 renal = test system: TK-10 renal
CAKI-1 renal = test system: CAKI-1 renal
RPMI-8226 leukemia = test system: RPMI-8226 leukemia
MDA-MB-231 breast = test system: MDA-MB-231 breast
HOP-62 NSCLC = test system: HOP-62 NSCLC
OVCAR-8 ovarian = test system: OVCAR-8 ovarian
SW-620 colon = test system: SW-620 colon
MALME-3M melanoma = test system: MALME-3M melanoma
SN12C renal = test system: SN12C renal
HT29 colon = test system: HT29 colon
HCT-116 colon = test system: HCT-116 colon
COLO 205 colon = test system: COLO 205 colon
HOP-92 NSCLC = test system: HOP-92 NSCLC
NCI-H226 lung = test system: NCI-H226 lung
LOX IMVI melanoma = test system: LOX IMVI melanoma
MDA-MB-435 = test system: MDA-MB-435
M14 melanoma = test system: M14 melanoma
KM12 colon = test system: KM12 colon
BT-549 breast = test system: BT-549 breast
MOLT-4 leukemia = test system: MOLT-4 leukemia
SNB-19 CNS = test system: SNB-19 CNS
A498 renal = test system: A498 renal
SK-MEL-28 melanoma = test system: SK-MEL-28 melanoma
RXF 393 renal = test system: RXF 393 renal
NCI/ADR-RES ovarian = test system: NCI/ADR-RES ovarian
OVCAR-4 ovarian = test system: OVCAR-4 ovarian
MCF7 breast = test system: MCF7 breast
UO-31 renal = test system: UO-31 renal
A549 NSCLC = test system: A549 NSCLC
HS 578T breast = test system: HS 578T breast
OVCAR-3 ovarian = test system: OVCAR-3 ovarian
HCC-2998 colon = test system: HCC-2998 colon
ACHN renal = test system: ACHN renal
HCT-15 colon = test system: HCT-15 colon
786-0 renal = test system: 786-0 renal
NCI-H460 lung = test system: NCI-H460 lung
EKVX NSCLC = test system: EKVX NSCLC
CCRF-CEM leukemia = test system: CCRF-CEM leukemia
U251 CNS = test system: U251 CNS
T-47D breast = test system: T-47D breast

## CCN(CC)CCC(=O)Nc1ccc(Cn2nnc3c2C(=O)c2nnn(Cc4ccc(NC(=O)CCN(CC)CC)cc4)c2C3=O)cc1
SF-268 CNS
  GI50: 0.338 µM
  TGI: 1.51 µM
SK-OV-3 ovarian
  GI50: 2.08 µM
  TGI: 5.88 µM
SF-539 CNS
  GI50: 0.295 µM
  TGI: 0.821 µM
DU-145 prostate
  GI50: 1.05 µM
  TGI: 2.25 µM
UACC-257 melanoma
  GI50: 1.01 µM
  TGI: 2.79 µM
SK-MEL-2 melanoma
  GI50: 0.22 µM
  TGI: 0.571 µM
IGROV1 ovarian
  GI50: 0.411 µM
  TGI: 1.37 µM
SNB-75 CNS
  GI50: 0.314 µM
  TGI: 0.88 µM
K-562 leukemia
  GI50: 0.669 µM
  TGI: > 37.9 µM
SR leukemia
  GI50: 0.507 µM
  TGI: 5 µM
SF-295 CNS
  GI50: 1.93 µM
  TGI: 5.33 µM
OVCAR-5 ovarian
  GI50: 0.994 µM
  TGI: 3.34 µM
NCI-H522 lung
  GI50: 0.18 µM
  TGI: 0.423 µM
NCI-H23 lung
  GI50: 0.326 µM
  TGI: 1.22 µM
HL-60(TB) leukemia
  GI50: 0.228 µM
  TGI: 0.628 µM
UACC-62 melanoma
  GI50: 1.08 µM
  TGI: 2.67 µM
PC-3 prostate
  GI50: 1.98 µM
  TGI: 6.87 µM
SK-MEL-5 melanoma
  GI50: 0.485 µM
  TGI: 1.25 µM
TK-10 renal
  GI50: 13.2 µM
  TGI: 30.8 µM
CAKI-1 renal
  GI50: > 71.1 µM
  TGI: > 100 µM
RPMI-8226 leukemia
  GI50: 0.53 µM
  TGI: 3.15 µM
MDA-MB-231 breast
  GI50: 0.253 µM
  TGI: 10.2 µM
HOP-62 NSCLC
  GI50: 1.75 µM
  TGI: 3.42 µM
OVCAR-8 ovarian
  GI50: 1.83 µM
  TGI: 4.41 µM
SW-620 colon
  GI50: 0.395 µM
  TGI: 1.75 µM
MALME-3M melanoma
  GI50: 0.137 µM
  TGI: 0.294 µM
SN12C renal
  GI50: 0.184 µM
  TGI: 0.385 µM
HT29 colon
  GI50: 0.304 µM
  TGI: 0.787 µM
HCT-116 colon
  GI50: 0.283 µM
  TGI: 1.12 µM
COLO 205 colon
  GI50: 0.175 µM
  TGI: 0.333 µM
HOP-92 NSCLC
  GI50: 0.325 µM
  TGI: 0.913 µM
NCI-H226 lung
  GI50: 1.51 µM
  TGI: 3.46 µM
LOX IMVI melanoma
  GI50: 0.232 µM
  TGI: 0.703 µM
MDA-MB-435
  GI50: 0.173 µM
  TGI: 0.324 µM
M14 melanoma
  GI50: 1.49 µM
  TGI: 3.43 µM
KM12 colon
  GI50: 0.728 µM
  TGI: 2.46 µM
BT-549 breast
  GI50: 1.64 µM
  TGI: 3.06 µM
MOLT-4 leukemia
  GI50: 0.242 µM
  TGI: 0.628 µM
SNB-19 CNS
  GI50: 0.186 µM
  TGI: 0.373 µM
A498 renal
  GI50: 2.45 µM
  TGI: 9.49 µM
SK-MEL-28 melanoma
  GI50: 1.09 µM
  TGI: 2.82 µM
RXF 393 renal
  GI50: 3.6 µM
  TGI: 15.2 µM
NCI/ADR-RES ovarian
  GI50: > 100 µM
  TGI: > 100 µM
OVCAR-4 ovarian
  GI50: 0.133 µM
  TGI: 0.263 µM
MCF7 breast
  GI50: 0.154 µM
  TGI: 0.373 µM
UO-31 renal
  GI50: > 41.1 µM
  TGI: > 61.8 µM
A549 NSCLC
  GI50: 1.51 µM
  TGI: 3.4 µM
HS 578T breast
  GI50: 2.34 µM
  TGI: 8.84 µM
OVCAR-3 ovarian
  GI50: 0.265 µM
  TGI: 0.778 µM
HCC-2998 colon
  GI50: 0.316 µM
  TGI: 0.987 µM
ACHN renal
  GI50: 12.5 µM
  TGI: 34.1 µM
HCT-15 colon
  GI50: 26.7 µM
  TGI: > 100 µM
786-0 renal
  GI50: 8.97 µM
  TGI: > 72.3 µM
NCI-H460 lung
  GI50: 0.356 µM
  TGI: 1.46 µM
EKVX NSCLC
  GI50: 1.54 µM
  TGI: 3.05 µM
CCRF-CEM leukemia
  GI50: 0.24 µM
U251 CNS
  GI50: 0.254 µM
  TGI: 0.688 µM

## CCN(CC)CCOc1ccc(/C=C2\C[C@H]3[C@@H]4CC=C5C[C@@H](OC(C)=O)CC[C@]5(C)[C@H]4CC[C@]3(C)[C@H]2OC(C)=O)cc1OC
SF-268 CNS
  GI50: 8.34 µM
  TGI: 19.8 µM
SF-539 CNS
  GI50: 8.59 µM
  TGI: 16 µM
DU-145 prostate
  GI50: 5.84 µM
  TGI: 12.2 µM
UACC-257 melanoma
  GI50: 10.6 µM
  TGI: 20 µM
SK-MEL-2 melanoma
  GI50: 19.2 µM
  TGI: > 50 µM
IGROV1 ovarian
  GI50: 14.9 µM
  TGI: > 50 µM
K-562 leukemia
  GI50: 8.17 µM
  TGI: 28.4 µM
SF-295 CNS
  GI50: 12.2 µM
  TGI: 24.3 µM
T-47D breast
  GI50: 16.3 µM
  TGI: 48.1 µM
OVCAR-5 ovarian
  GI50: 9.3 µM
  TGI: 18 µM
NCI-H522 lung
  GI50: 17.4 µM
  TGI: > 50 µM
NCI-H23 lung
  GI50: 7.96 µM
  TGI: 16.1 µM
HL-60(TB) leukemia
  GI50: 9.57 µM
  TGI: 19.5 µM
UACC-62 melanoma
  GI50: 11 µM
  TGI: 24.8 µM
PC-3 prostate
  GI50: 7.68 µM
  TGI: 21.3 µM
SK-MEL-5 melanoma
  GI50: 5.39 µM
  TGI: 17 µM
TK-10 renal
  GI50: 9.67 µM
  TGI: 20.5 µM
CAKI-1 renal
  GI50: 9.21 µM
  TGI: 18.6 µM
RPMI-8226 leukemia
  GI50: 1.4 µM
  TGI: 24.2 µM
MDA-MB-231 breast
  GI50: 14.1 µM
  TGI: 31.8 µM
HOP-62 NSCLC
  GI50: 10.1 µM
  TGI: 19.5 µM
OVCAR-8 ovarian
  GI50: 11.4 µM
  TGI: 22.7 µM
SW-620 colon
  GI50: 16.8 µM
  TGI: > 50 µM
SN12C renal
  GI50: 9.06 µM
  TGI: 21.3 µM
HT29 colon
  GI50: 14.8 µM
  TGI: > 50 µM
HCT-116 colon
  GI50: 9.76 µM
  TGI: 18.6 µM
COLO 205 colon
  GI50: 19.6 µM
  TGI: > 50 µM
HOP-92 NSCLC
  GI50: 5.95 µM
  TGI: 14.7 µM
NCI-H226 lung
  GI50: 11.3 µM
  TGI: 31.7 µM
LOX IMVI melanoma
  GI50: 18.1 µM
  TGI: > 50 µM
MDA-MB-435
  GI50: 11 µM
  TGI: 21.7 µM
M14 melanoma
  GI50: 7.62 µM
  TGI: 17.2 µM
KM12 colon
  GI50: 9.65 µM
  TGI: 21.4 µM
MOLT-4 leukemia
  GI50: 1.4 µM
  TGI: 20.6 µM
SNB-19 CNS
  GI50: 11.8 µM
  TGI: 30.1 µM
SK-MEL-28 melanoma
  GI50: 12.4 µM
  TGI: > 50 µM
RXF 393 renal
  GI50: 8.96 µM
  TGI: 20.7 µM
NCI/ADR-RES ovarian
  GI50: 11.1 µM
  TGI: 22.3 µM
MCF7 breast
  GI50: 12.8 µM
  TGI: > 50 µM
UO-31 renal
  GI50: 11.6 µM
  TGI: 27 µM
A549 NSCLC
  GI50: 9.86 µM
  TGI: 19.6 µM
HS 578T breast
  GI50: 10.6 µM
  TGI: 22.4 µM
OVCAR-3 ovarian
  GI50: 10.3 µM
  TGI: 22.1 µM
HCC-2998 colon
  GI50: 5.34 µM
  TGI: 12.5 µM
ACHN renal
  GI50: 9.19 µM
  TGI: 19.2 µM
HCT-15 colon
  GI50: 7.38 µM
  TGI: > 50 µM
786-0 renal
  GI50: 9.66 µM
  TGI: 18.7 µM
NCI-H460 lung
  GI50: 7.6 µM
  TGI: 34.6 µM
EKVX NSCLC
  GI50: 6.84 µM
  TGI: 14.5 µM
CCRF-CEM leukemia
  GI50: 0.361 µM
  TGI: 6.77 µM
U251 CNS
  GI50: 10.3 µM
  TGI: 26.2 µM
